Experimental data from patent publication US20130143825A1, “COMPOUNDS FOR USE IN THE TREATMENT OF DISEASES BASED ON THE EXPRESSION OF TOXIC TRANSCRIPTS” (UNIVERSITAT DE VALENCIA, priority 2010, published 2013).

Key:
[1] = test system: 103Y-Gal4/+;UAS-CTG(480)/+ flies; experiment: Lethality phenotype in pupae caused by expression of 480 CTG under 103Y-Gal4 (females born); type: in vivo, Drosophila; conditions: administered to larvae in the food; compared with p10
Description: The 120 vials that make up the chemical library were individually assayed on the lethality phenotype in pupae caused by the expression of 480 CTG under the control of 103Y-Gal4 at a concentration of 80 μM. […] Thus, for positions O1, O2, O3, O4, O5 and O6 of the hexapeptide, a total of six, three, six, four, two and seven active amino acids were obtained, respectively (FIG. 2A). In order to perform the deconvolution, 10 of these 28 amino acids were selected, on the basis of their degree of activity in the biological assay (FIG. 2A). Finally, of the possible combinations, 16 sequences were selected to perform the synthesis of the defined hexapeptides (FIG. 2B). The selection of these 16 peptides was based on redundancy criteria between the physical and chemical properties of active amino acids in similar positions.
At 250 μM, the activity of the peptide decreased, possibly due to a toxic effect of the peptide at higher concentrations.
In order to determine the contribution of each of the p10 residues to their activity on CTG(480), an alanine scanning experiment was performed. These experiments are based on substituting every amino acid of the peptide with alanine and keeping the rest. Alanine is a small amino acid and, in general, not very active; this is why it is used for this type of studies. Since each alanine substitution examines the contribution of an individual amino acid, this experiment makes it possible, on the one hand, to evaluate whether p10 is susceptible to optimisation (in the event that a substitution increases the efficacy of the molecule), or to determine which amino acids are important for its function (in the event that a substitution decreases the activity thereof). The sequence of p10 allows for 5 substitutions; for this reason, 5 new hexapeptides were synthesised which were assayed in relation to the lethality phenotype in 103Y-Gal4; UAS-CTG(480)/+ flies and commercial food.

2-AP-(CUG)23 RNA = experiment: 2-aminopurine fluorescence assay (hairpin opening); type: biochemical; conditions: peptide 100 μM, RNA 1 μM (1:100)
Outline: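 2-AP-labelled (CUG)23 RNA (1 μM) was incubated with peptides at 100 μM (RNA:peptide 1:100), or with MblZF at 0.1–5 μM. 2-aminopurine emission at 375 nm is expressed relative to free RNA, with higher fluorescence indicating a shift from hairpin to single-stranded.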

FAM-(CUG)23 RNA = experiment: Fluorescence gel retardation assay with FAM-(CUG)23; type: binding; conditions: peptide 2.5 mM, RNA 60 nM
From the text: The changes on the RNA caused by p10 in the FP assay are small, probably due to the low molecular weight of the molecule (less than 900 Da). For this reason, it was decided to supplement the study with gel retardation experiments. These assays are based on the differences in electrophoretic mobility between stable protein-nucleic acid complexes and their components separately. Since the FAM-(CUG)23 RNA was available, it was decided to prepare a fluorescence gel retardation assay. After determining the optimal quantity of RNA for detection (60 nM; FIG. 21A), the binding between the latter and MblZF was studied. Said binding caused both a decrease in the intensity of the band corresponding to the free RNA in the gel and the appearance of a signal in the interior of the gel wells (bound RNA).
In order to determine whether p10 could bind to CUG RNA molecules, it was decided to perform a similar gel retardation experiment between the peptide and FAM-(CUG)23. p10 bound to the RNA, with part of the complex being retained in the well, as described for MblZF. […] This affinity decreased upon decreasing the size of the repeats (FAM-(CUG)4, FIG. 24C). […] This could be due either to a synergic effect between the protein and the peptide or to an additive effect if both should bind to different RNA sites.
In order to study the specificity of the binding observed between p10 and the CUG repeats, two experiments were performed. In the first place, the five hexapeptides generated during the alanine scanning were assayed. […] In the second place, we studied the effect of p10 on other RNA and DNA sequences, both double-stranded and single-stranded, fluorescently labelled with carboxyfluorescein (FAM) (FIG. 25C).

CUG60 RNA = experiment: Circular dichroism of CUG60 RNA; type: binding; conditions: RNA 1 μM, p10 0.1-20 μM, MblZF 1 and 1.5 μM, ppyawa 0.5 and 1 μM, payawe 1 μM
Description: However, this effect was not reverted when the RNA was incubated jointly with MblZF and p10, regardless of the order of addition (C).
In order to study possible changes in the secondary structure of RNA induced by p10, in the first place we performed a circular dichroism (CD) experiment, using an RNA with unlabelled CUG repeats (CUG60). The circular dichroism of nucleic acids is caused by the stacking of the bases that make up the sequence thereof. Consequently, when a molecule binds to RNA, affecting the structure thereof, a change is detected in its CD spectrum. […] When we incubated the RNA with increasing concentrations of the peptide of SEQ ID NO: 10 (0.1 μM, 0.5 μM, 1 μM, 10 μM and 20 μM), a similar effect was observed (FIG. 27B). During the readings, the RNA was kept in the cuvette inside the dichrograph at 10° C. Throughout the 3 hours of each experiment, it was possible for the RNA to have been degraded; this would explain the decrease in the intensity of the signal observed. In order to rule out this possibility, the CD spectrum of CUG60 RNA was measured at times 0 and 3 h, having kept the CUG60 RNA at 10° C. at all times.

[2] = test system: AAG, CGG, CCUG and CAG repeats; experiment: Tryptophan extinction assay with repeats different from CUG; type: binding; conditions: RNA probe 5, 7.5, 10 μM (ppyawa: 10 μM)
Description: This figure illustrates an experiment which tested p10 and its capacity to bind to repeats different from CUG repeats, but which are also involved in diseases where the toxicity of RNAs with repeat expansions has been described. The tryptophan extinction assay was used, using (1) p10+AAG, CGG, CCUG and CAG at different RNA concentrations (5 μM, 7.5 μM and 10 μM).
On the other hand, as represented in FIG. 30, the peptides of the invention (particularly p10) have different binding affinities to hairpin loops formed by repeats other than CUG repeats, such as, for example AAG, CGG, CCUG and CAG. In this example, we tested p10 and its capacity to bind to repeats different from CUG repeats, but which are also involved in diseases where the toxicity of RNAs with long repeats has been described. […] Three assay points were used (3 different probe concentrations), with two measurements in each. The results were normalised to the signal offered by p10 alone. […] A single assay point is shown (probe at 10 μM). The results are shown non-normalised in order to be able to include the initial value of the peptides tested.

significant binding to FAM-(CUG)23 RNA (FAM-(CUG)23 RNA): None
Substance: ppyawa
activity on lethality phenotype (number of females), alanine scanning [1]: loss of activity
increase in the fluorescence emission of 2-AP-(CUG)23 (2-AP-(CUG)23 RNA): None of these peptides caused changes
change of circular dichroism spectrum of CUG60 (CUG60 RNA): did not occur
change of circular dichroism spectrum of CUG60 (CUG60 RNA; listed as p29.1): did not change the RNA spectrum
change of tryptophan fluorescence intensity in the presence of repeats [2]: increase in intensity
